≈ marks a conversion by molar mass, not a printed value.
Legend:
[1] = tested on: S. haemolyticus; assay: MIC in Nutrient Agar; type: cell-based, Staphylococcus haemolyticus; settings: Nutrient Agar containing 0.1 μg/ml of inducer; 37° C., 24 hours
Procedure: (§1) The triclosan-glycosides were added to Nutrient Agar (Oxoid CM0003; Thermofisher Scientific) and organisms were transferred onto the plates surface using a multi-point inoculation device (Oxoid Cathra, Thermofisher Scientific). The latter is essentially a metal plate containing a number of needles. Each needle tip (usually 36 per plate) dips into an organism suspension (in phosphate buffered saline; PBS) and the needles are then moved over the agar plate and lowered onto its surface. In this way the growth of colonies of up to 36 different organisms can be observed on one plate.
(§2) Nutrient Agar No. 2 was prepared according to the manufacturers instructions, autoclaved and cooled to 50° C. Test compounds were then added as filter sterilised solutions (50:50 deionised water:ethanol), to give final concentrations from 256 μg/ml to 0 μg/ml in doubling dilutions. […] The mixtures were swirled then four plates (25 ml molten agar) were poured for each concentration. Plates were dried in a laminar flow cabinet then inoculated with overnight cultures of organisms that had been decimally diluted twice in sterile saline solution (approximately 10^7 cfu/ml) using a multi-point inoculator. Plates were then incubated at 37° C. for 24 hours. MICs were determined as the concentration at which no growth was observed.

[2] = tested on: Aeromonas hydrophila OCC 778; assay: MIC in Nutrient Broth No. 2; type: cell-based; settings: Nutrient Broth No. 2
Procedure: (§3) Bacteria species as indicated in Table 1 were incubated for approximately 24 hours at 37° C.
(§4) The tests were repeated with the addition of inducers. Methyl glycoside was the main inducer used, but other suitable inducers include isopropyl-β-D-thiogalactopyranoside, p-nitrophenyl-α-L-arabinopyranoside and p-nitrophenyl-β-D-xylopyranoside. Concentration of inducer in all cases was 100 μg/ml.

[3] = tested on: Citrobacter freundii OCC 851; assay: MIC in Nutrient Broth No. 2; type: cell-based; settings: Nutrient Broth No. 2
Procedure: as §3, §4

[4] = tested on: Bacillus subtilis NCTC 10073; assay: MIC in Nutrient Broth No. 2; type: cell-based; settings: Nutrient Broth No. 2
Procedure: as §3, §4

[5] = tested on: Serratia marcescens OCC 217; assay: MIC in Nutrient Broth No. 2; type: cell-based; settings: Nutrient Broth No. 2
Procedure: as §3, §4

[6] = tested on: Enterobacter aerogenes ATCC 13048; assay: MIC in Nutrient Broth No. 2; type: cell-based; settings: Nutrient Broth No. 2
Procedure: as §3, §4

[7] = tested on: Proteus mirabilis ATCC 12453; assay: MIC in Nutrient Broth No. 2; type: cell-based; settings: Nutrient Broth No. 2
Procedure: as §3, §4

[8] = tested on: Enterococcus faecium ATCC 19434; assay: MIC in Nutrient Broth No. 2; type: cell-based; settings: Nutrient Broth No. 2
Procedure: as §3, §4

[9] = tested on: Enterococcus faecalis ATCC 29212; assay: MIC in Nutrient Broth No. 2; type: cell-based; settings: Nutrient Broth No. 2
Procedure: as §3, §4

[10] = tested on: Proteus vulgaris OCC 195; assay: MIC in Nutrient Broth No. 2; type: cell-based; settings: Nutrient Broth No. 2
Procedure: as §3, §4

[11] = tested on: Ps. Aeruginosa ATCC 27853; assay: MIC in Nutrient Broth No. 2; type: cell-based; settings: Nutrient Broth No. 2
Procedure: as §3, §4

[12] = tested on: Hafnia alvei ATCC 13337; assay: MIC in Nutrient Broth No. 2; type: cell-based; settings: Nutrient Broth No. 2
Procedure: as §3, §4

[13] = tested on: Salmonella; assay: MIC in Nutrient Broth No. 2; type: cell-based; settings: 11 strains, Nutrient Broth No. 2
Procedure: as §3, §4

[14] = tested on: Escherichia coli; assay: MIC in Nutrient Broth No. 2; type: cell-based; settings: 8 strains, Nutrient Broth No. 2
Procedure: as §3, §4

[15] = tested on: Bacillus cereus ATCC 14579; assay: MIC in Nutrient Broth No. 2; type: cell-based; settings: Nutrient Broth No. 2
Procedure: as §3, §4

[16] = tested on: Ent. cloacae ATCC 13047; assay: MIC in Nutrient Broth No. 2; type: cell-based, Enterobacter cloacae; settings: Nutrient Broth No. 2
Procedure: as §3, §4

[17] = tested on: C. freundii; assay: MIC in Nutrient Agar; type: cell-based, Citrobacter freundii; settings: Nutrient Agar containing 0.1 μg/ml of inducer; 37° C., 24 hours
Procedure: as §1, §2

[18] = tested on: Kleb. pneumoniae; assay: MIC in Nutrient Agar; type: cell-based, Klebsiella pneumoniae; settings: Nutrient Agar containing 0.1 μg/ml of inducer; 37° C., 24 hours
Procedure: as §1, §2

[19] = tested on: Aer. hydrophila; assay: MIC in Nutrient Agar; type: cell-based, Aeromonas hydrophila; settings: Nutrient Agar containing 0.1 μg/ml of inducer; 37° C., 24 hours
Procedure: as §1, §2

OC[C@H]1O[C@H](Oc2cc(Cl)ccc2Oc2ccc(Cl)cc2Cl)[C@H](O)[C@@H](O)[C@H]1O [α-D-Galactoside, triclosan-α-D-galactopyranoside]
MIC [1]: 8 µg/mL (≈ 17.7 µM) | MIC ([2]; with inducer 100 μg/ml): >256 µg/mL | MIC ([2]; without inducer): >256 µg/mL | MIC ([3]; with inducer 100 μg/ml): 128 µg/mL (≈ 283 µM) | MIC ([3]; without inducer): 64 µg/mL (≈ 142 µM) | MIC ([4]; with inducer 100 μg/ml): >256 µg/mL | MIC ([4]; without inducer): 256 µg/mL (≈ 567 µM) | MIC ([5]; with inducer 100 μg/ml): >256 µg/mL | MIC ([5]; without inducer): >256 µg/mL | MIC ([6]; with inducer 100 μg/ml): 64 µg/mL (≈ 142 µM) | MIC ([6]; without inducer): 128 µg/mL (≈ 283 µM) | MIC ([7]; with inducer 100 μg/ml): 32 µg/mL (≈ 70.8 µM) | MIC ([7]; without inducer): 32 µg/mL (≈ 70.8 µM) | MIC ([8]; with inducer 100 μg/ml): >256 µg/mL | MIC ([8]; without inducer): >256 µg/mL | MIC ([9]; with inducer 100 μg/ml): >256 µg/mL | MIC ([9]; without inducer): >256 µg/mL | MIC ([10]; with inducer 100 μg/ml): 64 µg/mL (≈ 142 µM) | MIC ([10]; without inducer): 64 µg/mL (≈ 142 µM) | MIC ([11]; with inducer 100 μg/ml): >256 µg/mL | MIC ([11]; without inducer): >256 µg/mL | MIC ([12]; with inducer 100 μg/ml): 8 µg/mL (≈ 17.7 µM) | MIC ([12]; without inducer): 16 µg/mL (≈ 35.4 µM) | MIC ([13]; with inducer 100 μg/ml): 32 to 128 µg/mL | MIC ([13]; without inducer): 32 to 64 µg/mL | MIC ([14]; with inducer 100 μg/ml): 8 to 64 µg/mL | MIC ([14]; without inducer): 16 to 64 µg/mL | MIC ([15]; with inducer 100 μg/ml): >256 µg/mL | MIC ([15]; without inducer): >256 µg/mL | MIC ([16]; with inducer 100 μg/ml): 16 µg/mL (≈ 35.4 µM) | MIC ([16]; without inducer): 32 µg/mL (≈ 70.8 µM) | MIC [17]: 64 µg/mL (≈ 142 µM) | MIC [18]: 16 µg/mL (≈ 35.4 µM) | MIC [19]: >256 µg/mL

OC[C@H]1O[C@H](Oc2cc(Cl)ccc2Oc2ccc(Cl)cc2Cl)[C@H](O)[C@@H](O)[C@@H]1O [α-D-Glucoside, triclosan-α-D-glucopyranoside]
MIC [1]: 1 µg/mL (≈ 2.21 µM) | MIC ([2]; with inducer 100 μg/ml): 256 µg/mL (≈ 567 µM) | MIC ([2]; without inducer): 256 µg/mL (≈ 567 µM) | MIC ([3]; with inducer 100 μg/ml): 4 µg/mL (≈ 8.86 µM) | MIC ([3]; without inducer): 4 µg/mL (≈ 8.86 µM) | MIC ([4]; with inducer 100 μg/ml): 32 µg/mL (≈ 70.8 µM) | MIC ([4]; without inducer): 32 µg/mL (≈ 70.8 µM) | MIC ([5]; with inducer 100 μg/ml): >256 µg/mL | MIC ([5]; without inducer): >256 µg/mL | MIC ([6]; with inducer 100 μg/ml): 4 µg/mL (≈ 8.86 µM) | MIC ([6]; without inducer): 8 µg/mL (≈ 17.7 µM) | MIC ([7]; with inducer 100 μg/ml): 2 µg/mL (≈ 4.43 µM) | MIC ([7]; without inducer): 2 µg/mL (≈ 4.43 µM) | MIC ([8]; with inducer 100 μg/ml): 256 µg/mL (≈ 567 µM) | MIC ([8]; without inducer): 256 µg/mL (≈ 567 µM) | MIC ([9]; with inducer 100 μg/ml): 128 µg/mL (≈ 283 µM) | MIC ([9]; without inducer): 128 µg/mL (≈ 283 µM) | MIC ([10]; with inducer 100 μg/ml): 4 µg/mL (≈ 8.86 µM) | MIC ([10]; without inducer): 4 µg/mL (≈ 8.86 µM) | MIC ([11]; with inducer 100 μg/ml): >256 µg/mL | MIC ([11]; without inducer): >256 µg/mL | MIC ([12]; with inducer 100 μg/ml): 1 µg/mL (≈ 2.21 µM) | MIC ([12]; without inducer): 1 µg/mL (≈ 2.21 µM) | MIC ([13]; with inducer 100 μg/ml): 1 to 4 µg/mL | MIC ([13]; without inducer): 2 to 8 µg/mL | MIC ([14]; with inducer 100 μg/ml): 1 to 4 µg/mL | MIC ([14]; without inducer): 2 to 8 µg/mL | MIC ([15]; with inducer 100 μg/ml): 128 µg/mL (≈ 283 µM) | MIC ([15]; without inducer): 128 µg/mL (≈ 283 µM) | MIC ([16]; with inducer 100 μg/ml): 1 µg/mL (≈ 2.21 µM) | MIC ([16]; without inducer): 1 µg/mL (≈ 2.21 µM) | MIC [17]: 4 µg/mL (≈ 8.86 µM) | MIC [18]: 0.5 µg/mL (≈ 1.11 µM) | MIC [19]: 128 µg/mL (≈ 283 µM)
